Measurements taken from ChEMBL document CHEMBL4033705, “Screening for bioactive natural products from a 67-compound library of Glycyrrhiza inflata” (Bioorg Med Chem, 2017).
pIC50: −log10 of the molar value. Where a SMILES comes first, the peptide text is derived from it. The star is where a group is joined. Cbz = O=C(OCc1ccccc1)*

Legend:
[1] = biological target: T1, Tyrosine-protein phosphatase non-receptor type 1 (Homo sapiens, UniProt P18031); assay: Inhibition of recombinant human PTP1B using p-nitrophenyl phosphate as substrate after 30 mins
T1 sequence (P18031 whole entry): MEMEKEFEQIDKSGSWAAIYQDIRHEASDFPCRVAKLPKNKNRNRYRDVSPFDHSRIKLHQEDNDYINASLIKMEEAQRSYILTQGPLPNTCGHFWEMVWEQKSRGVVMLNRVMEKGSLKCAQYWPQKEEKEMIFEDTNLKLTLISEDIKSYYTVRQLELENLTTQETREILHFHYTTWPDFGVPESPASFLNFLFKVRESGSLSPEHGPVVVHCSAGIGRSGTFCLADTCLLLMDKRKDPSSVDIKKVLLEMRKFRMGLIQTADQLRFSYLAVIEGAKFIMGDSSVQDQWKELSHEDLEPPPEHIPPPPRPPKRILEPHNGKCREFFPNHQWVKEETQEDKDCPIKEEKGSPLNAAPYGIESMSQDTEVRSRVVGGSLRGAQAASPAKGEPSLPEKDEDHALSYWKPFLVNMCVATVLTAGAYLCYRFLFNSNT

[2] = system: SW480; assay: Growth inhibition of human SW480 cells at 10 uM after 24 hrs by MTS assay relative to control; type: functional; conditions: SW480, 24 h, read-out: GI
[3] = biological target: Mushroom tyrosinase (Agaricus bisporus) (UniProt O42713+Q00024+C7FF04+C7FF05); assay: Inhibition of mushroom tyrosinase at 10 uM using L-tyrosine as substrate incubated for 15 mins followed by substrate addition relative to control
[4] = (§1) Growth inhibition of human HEK293T cells at 10 uM after 24 hrs by MTS assay relative to control; type: cell-based, HEK-293T; conditions: HEK293T cells, read-out: GI
[5] = system: HepG2; assay: Cytotoxicity against human HepG2 cells assessed as reduction in cell viability after 24 hrs by MTS assay; type: functional, cell-based; conditions: HepG2, 24 h
[6] = biological target: T2, Tyrosine-protein phosphatase non-receptor type 1 (Homo sapiens) (UniProt P18031); assay: Inhibition of recombinant human PTP1B using p-nitrophenyl phosphate as substrate at 10 uM after 30 mins relative to control
T2 sequence (whole entry): T1 sequence (P18031 whole entry)

[7] = system: HepG2; assay: Growth inhibition of human HepG2 cells at 10 uM after 24 hrs by MTS assay relative to control; type: functional; conditions: HepG2, 24 h, read-out: GI
[8] = system: SW480; assay: Cytotoxicity against human SW480 cells assessed as reduction in cell viability after 24 hrs by MTS assay; type: functional, cell-based; conditions: SW480, 24 h
[9] = (§2) Growth inhibition of human LO2 cells at 10 uM after 24 hrs by MTS assay relative to control; type: cell-based, L02; conditions: LO2 cells, read-out: GI
[10] = system: MCF7; assay: Growth inhibition of human MCF7 cells at 10 uM after 24 hrs by MTS assay relative to control; type: functional; conditions: MCF7, 24 h, read-out: GI
[11] = system: RAW264.7; assay: Antiinflammatory activity in mouse RAW264.7 cells assessed as inhibition of LPS-induced NO production at 10 uM after 24 hrs by Griess reagent based assay relative to control; type: functional; conditions: RAW264.7, 24 h
[12] = system: MCF7; assay: Cytotoxicity against human MCF7 cells assessed as reduction in cell viability after 24 hrs by MTS assay; type: functional, cell-based; conditions: MCF7, 24 h
[13] = organism: Homo sapiens; assay: Inhibition of LPS-induced NF-kappaB transcription (unknown origin) expressed in human SW480 cells at 10 uM by luciferase reporter gene assay; type: cell-based
[14] = biological target: Mushroom tyrosinase (Agaricus bisporus, UniProt O42713+Q00024+C7FF04+C7FF05); assay: Inhibition of mushroom tyrosinase using L-tyrosine as substrate incubated for 15 mins followed by substrate addition
[15] = system: HEK-293T; assay: as §1; type: cell-based; conditions: hek-293t, 24 h, 10 µM
[16] = system: L02; assay: as §2; type: cell-based; conditions: l02, 24 h, 10 µM
[17] = system: RAW264.7; assay: Antiinflammatory activity in mouse RAW264.7 cells assessed as inhibition of LPS-induced NO production after 24 hrs by Griess reagent based assay; type: functional, cell-based; conditions: RAW264.7, 24 h
[18] = Inhibition of LPS-induced NF-kappaB transcription (unknown origin) expressed in human SW480 cells by luciferase reporter gene assay; type: cell-based
[19] = system: RAW264.7; assay: Antiinflammatory activity in mouse RAW264.7 cells assessed as inhibition of LPS-induced NO production at 20 uM after 24 hrs by Griess reagent based assay relative to control; type: functional; conditions: RAW264.7, 24 h
[20] = organism: Homo sapiens; assay: Inhibition of LPS-induced NF-kappaB transcription (unknown origin) expressed in human SW480 cells at 20 uM by luciferase reporter gene assay; type: cell-based

pIC50 [1] | inhibition [3] | inhibition [6] | IC50 [14] | pIC50 [17] | pIC50 [18] | Compound | inhibition of growth at 10 µM [2] | inhibition at 24 h, 10 µM [4] | pIC50 [5] | inhibition of growth at 10 µM [7] | pIC50 [8] | inhibition at 24 h, 10 µM [9] | inhibition of growth at 10 µM [10] | inhibition at 10 µM [11] | pIC50 [12] | inhibition [13] | Activity [15] | Activity [16] | inhibition at 20 µM [19] | inhibition [20]
6.51 | 8% | 92% |  |  |  | CC(C)=CCc1cc([C@@H]2CC(=O)c3ccc(O)c(CC=C(C)C)c3O2)ccc1O [GLABROL] | 98% | 36% | 5.55 | 98% | 5.29 | 16% | 97% | 6% | 5.12 | 21% |  |  |  | 
 | 98% | 38% | 0.1 µM |  |  | CC1(C)C=Cc2c(ccc3c2OC[C@@H](c2ccc(O)cc2O)C3)O1 [GLABRIDIN] | 32% | 2% |  | 7% |  | 3% | 0% | 7% |  | 0% |  |  |  | 
 | 95% | 58% | 0.25 µM |  |  | CC1(C)C=Cc2cc(-c3coc4cc(O)cc(O)c4c3=O)cc(O)c2O1 | 29% | 0% |  | 5% |  | 7% | 15% | 14% |  | 8% |  |  |  | 
5.83 | 1% | 92% |  |  |  | CC(C)=CCc1c(O)cc2occ(-c3cc(O)c4c(c3)C=CC(C)(C)O4)c(=O)c2c1O | 82% | 11% | 5.45 | 89% | 5.10 | 5% | 92% | 0% | 5.14 | 14% | Non-Toxic | Non-Toxic |  | 
 | 11% | 75% |  | 5.03 | 5.61 | COc1c(/C=C/C(=O)c2ccc(O)c(O)c2)ccc(O)c1CC=C(C)C | 21% | 28% |  | 5% |  | 9% | 21% | 85% |  | 80% |  |  |  | 
 | 90% | 36% | 0.8 µM |  |  | CC1(C)C=Cc2c(O)ccc(-c3coc4cc(O)cc(O)c4c3=O)c2O1 | 15% | 1% |  | 22% |  | 24% | 28% | 21% |  | 12% |  |  |  | 
 | 1% | 33% |  |  | 5.14 | CC1(C)C=Cc2cc(/C=C/C(=O)c3ccc(O)cc3O)ccc2O1 | 14% | 7% |  | 0% |  | 5% | 14% | 23% |  | 78% |  |  |  | 
 | 8% | 21% |  | 5.04 | 5.42 | C=C(C)[C@H](C)c1cc(/C=C/C(=O)c2ccc(O)cc2)c(OC)cc1O [LICOCHALCONE E] | 44% | 34% |  | 23% |  | 22% | 42% | 55% |  | 72% |  |  |  | 
 | 8% | 64% |  | 5.06 |  | COc1c(/C=C/C(=O)c2ccc(O)cc2)ccc(O)c1O | 9% | 7% |  | 4% |  | 6% | 13% | 71 to 73% |  | 4% |  |  |  | 
 | 1% | 18% |  |  | 4.86 | C=CC(C)(C)c1cc(/C=C/C(=O)c2ccc(O)cc2)c(OC)cc1O [LICOAGROCHACONE A] | 7% | 4% |  | 14% |  | 16% | 10% | 39% |  | 56% |  |  |  | 
6.35 | 0% | 90% |  |  |  | CC(C)=CCc1cc(/C=C/C(=O)c2ccc(O)c(CC=C(C)C)c2O)ccc1O [KANZONOL C] | 96% | 21% |  | 27% | 5.21 | 34% | 79% | 19% | 5.04 | 6% |  |  |  | 
 |  |  |  |  |  | COc1cc(/C=C/C(=O)CC(=O)/C=C/c2ccc(O)c(OC)c2)ccc1O [CURCUMIN] |  |  |  |  |  |  |  |  |  |  |  |  | 70% | 
 | 5% | 46% |  |  |  | CC(C)=CCc1cc([C@@H]2CC(=O)c3c(O)cc(O)c(CC=C(C)C)c3O2)ccc1O [LESPEDEZAFLAVANONE B] | 81% | 6% |  | 24% | 4.90 | 12% | 86% | 14% | 4.88 | 34% | Non-Toxic | Non-Toxic |  | 
6.30 | 7% | 96% |  |  |  | CC(C)=CCc1c(O)ccc(-c2coc3c(CC=C(C)C)c(O)cc(O)c3c2=O)c1O | 98% | 10% | 5.25 | 80% | 5.34 | 20% | 88% | 11% | 5.13 | 19% | Non-Toxic | Non-Toxic |  | 
 | 14% | 15% |  |  | 5.51 | CC1(C)C=Cc2c(ccc(-c3cc4ccc(O)cc4o3)c2O)O1 | 31% | 11% |  | 5% |  | 4% | 0% | 22% |  | 73% |  |  |  | 
 | 12% | 48% |  |  | 5.18 | C=CC(C)(C)c1cc(/C=C/C(=O)c2ccc(O)cc2)c(OC)c(O)c1O | 36% | 11% |  | 22% |  | 5% | 31% | 50% |  | 66% |  |  |  | 
 | 2% | 18% |  | 5.42 |  | CC(C)=CCc1c(O)cc(O)c2c(=O)cc(-c3ccc(O)cc3)oc12 | 19% |  |  | 21% |  |  | 0% | 58% |  | 3% |  |  |  | 
 | 7% | 34% |  |  |  | CC(C)=CCc1c(O)cc2occ(-c3ccc4c(c3O)C=CC(C)(C)O4)c(=O)c2c1O | 99% | 39% | 5.15 | 75% | 5.17 | 16% | 79% | 26% | 5.07 | 23% |  |  |  | 
 |  |  |  |  |  | CC(C)C[C@@H](C=O)NC(=O)[C@H](CC(C)C)NC(=O)[C@H](CC(C)C)NC(=O)OCc1ccccc1 (Cbz-Leu-Leu-Leu-aldehyde) |  |  |  |  |  |  |  |  |  |  |  |  |  | 70%
